Literature values, collected in patent publication US20110189317A1, “Method for Inhibiting the Activity of DPP-IV and Lowering Blood Glucose Level” (Naturalendo Tech Co., Ltd., priority 2006, published 2011).
Where two headings read alike, the source gives them in different places.

Assays:
[1] = combined administration of Metformin with LAF237 or placebo, after 52 weeks; p<0.0001
insulin secretion = conditions: read-out: EC50 (half-maximal effective concentration), insulin secretion

Row | EC50 (insulin secretion) | Compound | HbA1c difference [1] | blood glucose level (GLP-1 dropping for 4 hours, patients with secondary failure on oral hypoglycemic agent) | blood glucose level (intravenously, continuously for 1 week, regular diet)
1 | – | N#C[C@@H]1CCCN1C(=O)CNC12CC3CC(CC(O)(C3)C1)C2 [LAF237] | 1.1±0.2% | – | –
2 | ~0.01 nM | GLP-1: incretin hormone composed of total 30 amino acids, facilitates insulin secretion | – | complete normalization in the blood glucose level | nearly normal blood glucose level
